“And” between values parts separate entries of the source, which are not always exact repeats. Equal entries are not always repeated. The source made the active and inactive calls. The calls are words filed in the database; no cut-off is given here.
Columns and labels:
Canis familiaris [1] = assay: Tested for mean blood pressure without ventricular tachycardia in dogs at a dose of 6 mg/kg expt-1; format: functional, Canis lupus familiaris
Canis familiaris [2] = species on record: Canis familiaris; assay: Relative effect on mean blood pressure in dogs;NC = no change in mean BP; format: functional, organism-based; conditions: Canis lupus familiaris
Canis familiaris [3] = assay: Tested for Norman sinus rhythm in dogs at a dose of 3 mg/kg expt-2; format: functional, Canis lupus familiaris
Canis familiaris [4] = assay: Tested for mean blood pressure without ventricular tachycardia in dogs at a dose of 3 mg/kg expt-2; format: functional, Canis lupus familiaris
Canis familiaris [5] = species on record: Canis familiaris; assay: Relative effect on normal sinus rate in dogs;NC =no change in normal sinus rate.; format: functional, organism-based; conditions: Canis lupus familiaris
Canis familiaris [6] = assay: Tested for mean blood pressure with ventricular tachycardia in dogs at a dose of 6 mg/kg expt-2; format: functional, Canis lupus familiaris
Canis familiaris [7] = assay: Tested for Norman sinus rhythm in dogs at a dose of 3 mg/kg expt-1; format: functional, Canis lupus familiaris
Canis familiaris [8] = species on record: Canis familiaris; assay: Relative effect on abolition of ventricular tachycardia in dogs; no abolition of VT; format: functional, organism-based; conditions: Canis lupus familiaris; Cardiac ventricle
Canis familiaris [9] = assay: Tested for mean blood pressure without ventricular tachycardia in dogs at a dose of 6 mg/kg expt-2; format: functional, Canis lupus familiaris
Canis familiaris [10] = species on record: Canis familiaris; assay: Relative effect on slowing of ventricular tachycardia in dogs;slowing of VT present; format: functional, organism-based; conditions: Canis lupus familiaris; Cardiac ventricle
Canis familiaris [11] = assay: Tested for Norman sinus rhythm in dogs at a dose of 6 mg/kg expt-2; format: functional, Canis lupus familiaris
Canis familiaris [12] = species on record: Canis familiaris; assay: Relative effect on exacerbation of ventricular tachycardia in dogs; Exacerbation of VT present; format: functional, organism-based; conditions: Canis lupus familiaris; Cardiac ventricle
Canis familiaris [13] = assay: Tested for mean blood pressure without ventricular tachycardia in dogs at a dose of 3 mg/kg expt-1; format: functional, Canis lupus familiaris
Canis familiaris [14] = assay: Tested for Norman sinus rhythm in dogs at a dose of 6 mg/kg expt-1; format: functional, Canis lupus familiaris
Canis familiaris [15] = assay: Tested for mean blood pressure with ventricular tachycardia in dogs at a dose of 3 mg/kg expt-1; format: functional, Canis lupus familiaris
Canis familiaris [16] = assay: Tested for mean blood pressure with ventricular tachycardia in dogs at a dose of 6 mg/kg expt-1; format: functional, Canis lupus familiaris
Canis familiaris [17] = assay: Tested for mean blood pressure with ventricular tachycardia in dogs at a dose of 3 mg/kg expt-2; format: functional, Canis lupus familiaris
Canis familiaris [18] = assay: Relative effect on mean blood pressure in dogs; Slight 8% increase im mean BP; format: functional, organism-based; conditions: Canis lupus familiaris
Canis familiaris [19] = assay: Tested for Norman sinus rhythm in dogs at a dose of 3 mg/kg; format: functional, Canis lupus familiaris
Canis familiaris [20] = species on record: Canis familiaris; assay: Relative effect on exacerbation of ventricular tachycardia in dogs; No exacerbation of VT; format: functional, organism-based; conditions: Canis lupus familiaris; Cardiac ventricle
Canis familiaris [21] = assay: Tested for Norman sinus rhythm in dogs at a dose of 6 mg/kg; format: functional, Canis lupus familiaris; parameters: unit not given beside the values
Canis familiaris [22] = assay: Tested for mean blood pressure without ventricular tachycardia in dogs at a dose of 6 mg/kg; format: functional, Canis lupus familiaris
Canis familiaris [23] = assay: Tested for mean blood pressure without ventricular tachycardia in dogs at a dose of 3 mg/kg; format: functional, Canis lupus familiaris
Canis familiaris [24] = species on record: Canis familiaris; assay: Relative effect on abolition of ventricular tachycardia in dogs;abolition of VT; format: functional, organism-based; conditions: Canis lupus familiaris; Cardiac ventricle
Canis familiaris [25] = assay: Tested for Sustained ventricular tachycardia in dogs at a dose of 6 mg/kg Expt-2; format: functional, Canis lupus familiaris, Cardiac ventricle
Canis familiaris [26] = species on record: Canis familiaris; assay: Relative effect on normal sinus rate in dogs; NC=no change; format: functional, organism-based; conditions: Canis lupus familiaris
Canis familiaris [27] = assay: Tested for Norman sinus rhythm in dogs at a dose of 6 mg/kg Expt-1; format: functional, Canis lupus familiaris
Canis familiaris [28] = assay: Tested for mean blood pressure without ventricular tachycardia in dogs at a dose of 3 mg/kg Expt-2; format: functional, Canis lupus familiaris
Canis familiaris [29] = assay: Tested for Norman sinus rhythm in dogs at a dose of 3 mg/kg Expt-1; format: functional, Canis lupus familiaris
Canis familiaris [30] = assay: Tested for Norman sinus rhythm in dogs at a dose of 3 mg/kg Expt-2; format: functional, Canis lupus familiaris
Canis familiaris [31] = assay: Tested for mean blood pressure without ventricular tachycardia in dogs at a dose of 6 mg/kg Expt-2; format: functional, Canis lupus familiaris
Canis familiaris [32] = assay: Tested for Sustained ventricular tachycardia in dogs at a dose of 6 mg/kg Expt-1; format: functional, Canis lupus familiaris, Cardiac ventricle
Canis familiaris [33] = species on record: Canis familiaris; assay: Relative effect on slowing of ventricular tachycardia in dogs; slowing of VT; format: functional, organism-based; conditions: Canis lupus familiaris; Cardiac ventricle
Canis familiaris [34] = assay: Tested for mean blood pressure without ventricular tachycardia in dogs at a dose of 3 mg/kg Expt-1; format: functional, Canis lupus familiaris
Canis familiaris [35] = assay: Tested for mean blood pressure with ventricular tachycardia in dogs at a dose of 6 mg/kg Expt-2; format: functional, Canis lupus familiaris
Canis familiaris [36] = assay: Tested for mean blood pressure with ventricular tachycardia in dogs at a dose of 3 mg/kg Expt-2; format: functional, Canis lupus familiaris
Canis familiaris [37] = assay: Tested for Norman sinus rhythm in dogs at a dose of 6 mg/kg Expt-2; format: functional, Canis lupus familiaris
Canis familiaris [38] = species on record: Canis familiaris; assay: Relative effect on mean blood pressure in dogs; NC=no change; format: functional, organism-based; conditions: Canis lupus familiaris
Canis familiaris [39] = assay: Tested for Sustained ventricular tachycardia in dogs at a dose of 3 mg/kg Expt-2; format: functional, Canis lupus familiaris, Cardiac ventricle
Canis familiaris [40] = species on record: Canis familiaris; assay: Relative effect on exacerbation of ventricular tachycardia in dogs; exacerbation of VT; format: functional, organism-based; conditions: Canis lupus familiaris; Cardiac ventricle
Canis familiaris [41] = assay: Tested for mean blood pressure without ventricular tachycardia in dogs at a dose of 6 mg/kg Expt-1; format: functional, Canis lupus familiaris
Canis familiaris [42] = assay: Tested for Sustained ventricular tachycardia in dogs at a dose of 3 mg/kg Expt-1; format: functional, Canis lupus familiaris, Cardiac ventricle
Canis familiaris [43] = assay: Tested for mean blood pressure with ventricular tachycardia in dogs at a dose of 6 mg/kg Expt-1; format: functional, Canis lupus familiaris
Canis familiaris [44] = species on record: Canis familiaris; assay: Relative effect on normal sinus rate in dogs;Slight decrease; format: functional, organism-based; conditions: Canis lupus familiaris
Canis familiaris [45] = species on record: Canis familiaris; assay: Relative effect on mean blood pressure in dogs; Moderate change in mean BP; format: functional, organism-based; conditions: Canis lupus familiaris
Canis familiaris [46] = species on record: Canis familiaris; assay: Relative effect on abolition of ventricular tachycardia in dogs; format: functional, organism-based; conditions: Canis lupus familiaris; Cardiac ventricle
Canis familiaris [47] = species on record: Canis familiaris; assay: Relative effect on mean blood pressure in dogs;NC=no change in mean BP; format: functional, organism-based; conditions: Canis lupus familiaris
Canis familiaris [48] = species on record: Canis familiaris; assay: Relative effect on normal sinus rate in dogs;Slight increase; format: functional, organism-based; conditions: Canis lupus familiaris
Canis familiaris [49] = assay: Tested for mean blood pressure without ventricular tachycardia in dogs at a dose of 3 mg/kg expt-3; format: functional, Canis lupus familiaris
Canis familiaris [50] = species on record: Canis familiaris; assay: Relative effect on exacerbation of ventricular tachycardia in dogs; no exacerbation of VT; format: functional, organism-based; conditions: Canis lupus familiaris; Cardiac ventricle
Canis familiaris [51] = species on record: Canis familiaris; assay: Relative effect on normal sinus rate in dogs;NC=no change; format: functional, organism-based; conditions: Canis lupus familiaris
Canis familiaris [52] = species on record: Canis familiaris; assay: Relative effect on abolition of ventricular tachycardia in dogs; abolition of VT; format: functional, organism-based; conditions: Canis lupus familiaris; Cardiac ventricle
Canis familiaris [53] = species on record: Canis familiaris; assay: Relative effect on mean blood pressure in dogs; moderate increase by 16% in mean BP; format: functional, organism-based; conditions: Canis lupus familiaris
Canis familiaris [54] = assay: Tested for Norman sinus rhythm in dogs at a dose of 3 mg/kg Expt-3; format: functional, Canis lupus familiaris
Canis familiaris [55] = assay: Tested for mean blood pressure without ventricular tachycardia in dogs at a dose of 6 mg/kg expt-3; format: functional, Canis lupus familiaris

SMILES: CCN(CC)CC(=O)Nc1c(C)cccc1C [LIDOCAINE]
- MBP (Canis familiaris [1]): 112
- Effect (Canis familiaris [2]): inactive
- NSR (Canis familiaris [3]): 150
- MBP (Canis familiaris [4]): 70
- Effect (Canis familiaris [5]): inactive
- MBP (Canis familiaris [6]): 52
- NSR (Canis familiaris [7]): 165
- Effect (Canis familiaris [8]): inactive
- MBP (Canis familiaris [9]): 72
- Effect (Canis familiaris [10]): Active
- NSR (Canis familiaris [11]): 150
- Effect (Canis familiaris [12]): Active
- MBP (Canis familiaris [13]): 110
- NSR (Canis familiaris [14]): 160
- MBP (Canis familiaris [15]): 40
- MBP (Canis familiaris [16]): 40
- MBP (Canis familiaris [17]): 75

SMILES: c1ccc(CN2CC3C[Se]CC(C3)C2)cc1
- Effect (Canis familiaris [18]): Slight
- NSR (Canis familiaris [19]): 160
- Effect (Canis familiaris [20]): No exacerbation
- Effect (Canis familiaris [5]): No change
- NSR (Canis familiaris [21]): 160
- MBP (Canis familiaris [22]): 125
- MBP (Canis familiaris [23]): 126
- Effect (Canis familiaris [24]): abolition of ventricular tachycardia

SMILES: OC1(O)C2C[Se]CC1CN(Cc1ccccc1)C2
- Activity (Canis familiaris [25]): 255 beats min-1
- Effect (Canis familiaris [26]): inactive
- NSR (Canis familiaris [27]): 155
- MBP (Canis familiaris [28]): 130
- NSR (Canis familiaris [29]): 150
- NSR (Canis familiaris [30]): 155
- MBP (Canis familiaris [31]): 130
- Activity (Canis familiaris [32]): 320 beats min-1
- Effect (Canis familiaris [33]): exacerbation of VT
- MBP (Canis familiaris [34]): 125
- MBP (Canis familiaris [35]): 60
- MBP (Canis familiaris [36]): 40
- NSR (Canis familiaris [37]): 150
- Effect (Canis familiaris [38]): inactive
- Activity (Canis familiaris [39]): 300 beats min-1
- Effect (Canis familiaris [8]): No exacerbation
- Effect (Canis familiaris [40]): exacerbation of VT
- MBP (Canis familiaris [41]): 125
- Activity (Canis familiaris [42]): 280 beats min-1
- MBP (Canis familiaris [43]): 70

SMILES: c1ccc([C@H]2N[C@@H](c3ccccc3)C3C[Se]CC2C3)cc1
- Activity (Canis familiaris [25]): 280 beats min-1
- Effect (Canis familiaris [44]): Slight
- NSR (Canis familiaris [27]): 145
- MBP (Canis familiaris [28]): 82
- NSR (Canis familiaris [29]): 150
- NSR (Canis familiaris [30]): 150
- MBP (Canis familiaris [31]): 80
- Effect (Canis familiaris [33]): exacerbation of VT
- MBP (Canis familiaris [34]): 125
- Effect (Canis familiaris [45]): mod
- Effect (Canis familiaris [46]): exacerbation of VT
- Effect (Canis familiaris [47]): No change
- MBP (Canis familiaris [35]): 20
- MBP (Canis familiaris [36]): 30
- NSR (Canis familiaris [37]): 140
- Activity (Canis familiaris [39]): 270 beats min-1
- Effect (Canis familiaris [40]): exacerbation of VT
- MBP (Canis familiaris [41]): 125
- Effect (Canis familiaris [48]): Slight

SMILES: c1ccc(CCN2CC3C[Se]CC(C3)C2)cc1
- MBP (Canis familiaris [49]): 150
- Effect (Canis familiaris [50]): No exacerbation
- NSR (Canis familiaris [29]): 168
- MBP (Canis familiaris [1]): 125
- NSR (Canis familiaris [30]): 150
- Effect (Canis familiaris [51]): inactive
- MBP (Canis familiaris [4]): 85
- NSR (Canis familiaris [21]; 6 mg/kg): 165 and 150 and 155
- Effect (Canis familiaris [52]): abolition of ventricular tachycardia
- Effect (Canis familiaris [53]): mod
- NSR (Canis familiaris [54]): 155
- MBP (Canis familiaris [55]): 85
- MBP (Canis familiaris [9]): 150
- MBP (Canis familiaris [13]): 128
